Laboratory results: ChEMBL document CHEMBL3425431, “Synthesis and evaluation of constrained phosphoramidate inhibitors of prostate-specific membrane antigen” (Bioorg Med Chem Lett, 2015)
Activity calls are given as the source filed them. No cut-off for these calls is given here.

Key:
[1] = Drug uptake in tumor of human CWR22Rv1 cells xenografted athymic NCr-nu/nu mouse at 200 uCi, iv after 2 hrs by microPET/CT imaging method; format: ADME, organism-based, CWR22R; settings: in vivo
[2] = system: Mus musculus; test: Drug uptake in other organs of human CWR22Rv1 cells xenografted athymic NCr-nu/nu mouse at 200 uCi, iv after 2 hrs by microPET/CT imaging method; format: ADME, organism-based; settings: in vivo
[3] = system: Kidney; test: Drug uptake in kidney of human CWR22Rv1 cells xenografted athymic NCr-nu/nu mouse at 200 uCi, iv after 2 hrs by microPET/CT imaging method; format: ADME, organism-based; settings: in vivo
[4] = target: T1, Glutamate carboxypeptidase 2 (Homo sapiens, UniProt Q04609); test: Inhibition of PSMA (unknown origin) incubated for 15 mins using PABGgG substrate by HPLC method
Target sequence in this assay (Q04609 whole entry): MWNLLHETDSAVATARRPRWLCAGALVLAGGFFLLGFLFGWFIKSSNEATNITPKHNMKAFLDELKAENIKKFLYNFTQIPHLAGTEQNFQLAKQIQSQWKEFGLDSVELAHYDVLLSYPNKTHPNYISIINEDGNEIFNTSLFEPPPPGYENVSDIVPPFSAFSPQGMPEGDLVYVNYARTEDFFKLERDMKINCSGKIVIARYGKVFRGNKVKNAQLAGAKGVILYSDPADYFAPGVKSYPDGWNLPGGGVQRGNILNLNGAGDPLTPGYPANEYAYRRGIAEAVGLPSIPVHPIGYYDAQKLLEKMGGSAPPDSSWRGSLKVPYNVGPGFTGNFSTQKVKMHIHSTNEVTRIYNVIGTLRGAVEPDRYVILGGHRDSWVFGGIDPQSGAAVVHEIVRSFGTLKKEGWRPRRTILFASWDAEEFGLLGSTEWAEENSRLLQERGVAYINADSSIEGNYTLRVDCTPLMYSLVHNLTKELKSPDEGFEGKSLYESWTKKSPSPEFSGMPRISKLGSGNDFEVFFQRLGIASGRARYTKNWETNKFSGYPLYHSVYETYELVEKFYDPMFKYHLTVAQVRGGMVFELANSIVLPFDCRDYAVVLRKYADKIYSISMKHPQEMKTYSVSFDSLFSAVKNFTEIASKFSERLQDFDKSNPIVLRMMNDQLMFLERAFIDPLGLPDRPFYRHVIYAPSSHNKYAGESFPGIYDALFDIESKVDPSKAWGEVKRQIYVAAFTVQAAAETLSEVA

[5] = target: T1, Glutamate carboxypeptidase 2; settings: 0.1 uM
Target sequence in this assay (Q04609 whole entry, looked up): as the sequence (Q04609 whole entry) above
Description: Slow reversible inhibition of PSMA (unknown origin) at 0.1 uM pre-incubated for 10 mins before PABGgG substrate addition by HPLC method

[6] = Half life in pH 4.5 buffer at 70 degC by [31P] NMR spectrometry; format: physicochemical
[7] = Half life in pH 4.5 buffer at 50 degC by [31P] NMR spectrometry; format: physicochemical

| Compound | IC50 [4] | inhibition [5] | other results |
| --- | --- | --- | --- |
| O=C(O)CC[C@H](NP(=O)(O)O[C@@H]1C[C@@H](C(=O)O)N(C(=O)CC[C@H](NC(=O)CCCCCNC(=O)c2ccc(F)cc2)C(=O)O)C1)C(=O)O.O=C(O)CC[C@H](NP(=O)(O)O[C@@H]1C[C@@H](C(=O)O)N(C(=O)CC[C@H](NC(=O)CCCCCNC(=O)c2ccc([18F])cc2)C(=O)O)C1)C(=O)O | – | – | Drug uptake [1]: Active; Drug uptake [2]: Active; Drug uptake [3]: Active |
| O=C(O)CC[C@H](NP(=O)(O)OCCC[C@H](NC(=O)CC[C@H](NC(=O)c1ccc(F)cc1)C(=O)O)C(=O)O)C(=O)O | 1.3 nM | – | – |
| O=C(O)CC[C@H](NP(=O)(O)OCCC[C@H](NC(=O)CC[C@H](NC(=O)CCCCCNC(=O)c1ccc(F)cc1)C(=O)O)C(=O)O)C(=O)O [CTT-1057] | 0.4 nM | – | half-life [6]: 12 min; half-life [7]: 75 min |
| N[C@@H](CCC(=O)N1C[C@@H](OP(=O)(O)N[C@@H](CCC(=O)O)C(=O)O)C[C@@H]1C(=O)O)C(=O)O | 357 nM | Active | – |
| N[C@@H](CCC(=O)N[C@@H](CCCOP(=O)(O)N[C@@H](CCC(=O)O)C(=O)O)C(=O)O)C(=O)O | 27 nM | – | – |
| NCCCCCC(=O)N[C@@H](CCC(=O)N[C@@H](CCCOP(=O)(O)N[C@@H](CCC(=O)O)C(=O)O)C(=O)O)C(=O)O | 19 nM | – | – |
| N[C@@H](CCC(=O)N1C[C@H](OP(=O)(O)N[C@@H](CCC(=O)O)C(=O)O)C[C@H]1C(=O)O)C(=O)O | 60 nM | Active | – |
| NCCCCCC(=O)N[C@@H](CCC(=O)N1C[C@@H](OP(=O)(O)N[C@@H](CCC(=O)O)C(=O)O)C[C@@H]1C(=O)O)C(=O)O | 112 nM | Active | – |

Now from value to compound, other results behind:

| IC50 [4] | inhibition [5] | Compound | other results |
| --- | --- | --- | --- |
| 11 nM | Active | O=C(O)CC[C@H](NP(=O)(O)O[C@H]1C[C@H](C(=O)O)N(C(=O)CC[C@H](NC(=O)CCCCCNC(=O)c2ccc(F)cc2)C(=O)O)C1)C(=O)O | – |
| 3 nM | Active | O=C(O)CC[C@H](NP(=O)(O)O[C@H]1C[C@H](C(=O)O)N(C(=O)CC[C@H](NC(=O)c2ccc(F)cc2)C(=O)O)C1)C(=O)O | – |
| 2.6 nM | Active | O=C(O)CC[C@H](NP(=O)(O)O[C@@H]1C[C@@H](C(=O)O)N(C(=O)CC[C@H](NC(=O)c2ccc(F)cc2)C(=O)O)C1)C(=O)O | – |
| 79 nM | Active | NCCCCCC(=O)N[C@@H](CCC(=O)N1C[C@H](OP(=O)(O)N[C@@H](CCC(=O)O)C(=O)O)C[C@H]1C(=O)O)C(=O)O | – |
| 1.3 nM | Active | O=C(O)CC[C@H](NP(=O)(O)O[C@@H]1C[C@@H](C(=O)O)N(C(=O)CC[C@H](NC(=O)CCCCCNC(=O)c2ccc(F)cc2)C(=O)O)C1)C(=O)O | half-life [6]: 32 min; half-life [7]: 105 min |
